From article PMC4287973, “Tumor cell-specific inhibition of MYC function using small molecule inhibitors of the HUWE1 ubiquitin ligase” (EMBO Molecular Medicine, 2014)

Key:
HECT-domain of HUWE1 = target: T1, HECT-domain of HUWE1 (Homo sapiens, UniProt Q7Z6Z7); test: HUWE1 auto-ubiquitination assay (DELFIA format); assay type: biochemical; conditions: UBA1, UbcH5b, read-out: IC50 HUWE1 (in vitro auto-ubiquitination)
T1 construct: 30 ng biotinylated His-HUWE1 (C-terminal ∼350 amino acids = HECT-domain); His; biotin (biotinylated)
T1 sequence (Q7Z6Z7 4038-4374 limits assumed): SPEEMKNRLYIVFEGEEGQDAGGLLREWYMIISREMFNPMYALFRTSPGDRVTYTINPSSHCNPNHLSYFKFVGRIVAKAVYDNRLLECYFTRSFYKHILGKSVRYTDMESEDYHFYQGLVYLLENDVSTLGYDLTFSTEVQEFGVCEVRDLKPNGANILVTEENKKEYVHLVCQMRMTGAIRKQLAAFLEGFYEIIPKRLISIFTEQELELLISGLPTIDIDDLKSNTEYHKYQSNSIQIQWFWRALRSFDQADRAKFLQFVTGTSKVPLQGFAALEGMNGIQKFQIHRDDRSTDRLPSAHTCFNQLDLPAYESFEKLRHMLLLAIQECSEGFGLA
Method: To identify potential inhibitors of HUWE1, we configured an in vitro assay of HUWE1 activity for high-throughput screening of small molecules, exploiting the fact that the HECT-domain of HUWE1 auto-ubiquitinates (Pandya et al, [2010]). Briefly, the HECT-domain of HUWE1 was biotin-tagged, attached to streptavidin-coated 96-well plates, and incubated with UBA1, UbcH5b, a ubiquitin-conjugating enzyme that supports HUWE1 activity in vitro (Adhikary et al, [2005]), ATP, and MYC-tagged ubiquitin. Auto-ubiquitination was detected using a europium-labeled MYC antibody and appropriate detection reagents (Fig3A). […] After hit confirmation in repeat experiments, we identified inhibitors of UBA1 or UbcH5b by a thioester assay that measures the covalent binding of UbcH5b to ubiquitin in the presence of UBA1: Compounds active in this assay were eliminated. Furthermore, dose responses were determined in both HUWE1 and NEDD4 auto-ubiquitination assays, and compounds inhibiting NEDD4 auto-ubiquitination were eliminated (Fig3B and unpublished observations). […]
A DELFIA format assay was used to measure the covalent association of ubiquitin with HUWE1 (auto-ubiquitination). […] Europium fluorescence was measured with 50 μl DELFIA enhancement solution (Perkin Elmer) in a Wallac Victor fluorescence plate reader (Perkin Elmer).

SMURF1 = target: T2, SMURF1 (Homo sapiens, UniProt Q9HCE7); test: in vitro HECT-domain auto-ubiquitination assay, SMURF1; assay type: biochemical
T2 construct: HECT-domains of multiple ligases auto-ubiquitinate in in vitro assays containing both UBA1 and UbcH5b

Ls174T cells = test: Colony formation assay of Ls174T cells; assay type: cell-based; conditions: Homo sapiens, 120 h, stained after 5 days, read-out: estimated IC50 colony formation
Method: Partial shRNA-mediated depletion of HUWE1 led to a moderate, but highly significant reduction in IC50 value for growth inhibition by BI8622, arguing that growth inhibition is an on-target effect of the inhibitor (Supplementary Fig S6). […] Incubation with either compound retarded passage of Ls174T cells through all phases of the cell cycle, with the effect being strongest for G1. In contrast to colon carcinoma cells, HUWE1 is not required for proliferation of embryonic stem (ES) cells and deletion of HUWE1 instead delays the decrease of N-MYC levels that occurs upon removal of leukemia inhibitory factor (LIF) from the medium (Zhao et al, [2008]). […]
Figure 4 Effect of HUWE1 inhibition on growth and gene expression in epithelial and embryonic stem cells • Colony formation assays documenting growth of Ls174T cells in the presence of the indicated concentrations of HUWE1 inhibitors. […] A quantitation of N-MYC protein levels relative to Vinculin is shown below the blot (n = 3). • RQ–PCR assays documenting expression of MYC target gene expression in murine ES cells (F) and in crypt cultures of normal intestinal epithelial cells (G) upon inhibition of HUWE1. […]
HCT116, HEK293T, HeLa, HT29, ES, Phoenix, and U2OS cells were cultivated in DMEM (Sigma). […] Quantification of crystal violet staining was performed by extracting dye with 10% acetic acid and measuring absorbance at 590 nm. […]

T2 sequence (Q9HCE7 420-757 limits assumed, species assumed): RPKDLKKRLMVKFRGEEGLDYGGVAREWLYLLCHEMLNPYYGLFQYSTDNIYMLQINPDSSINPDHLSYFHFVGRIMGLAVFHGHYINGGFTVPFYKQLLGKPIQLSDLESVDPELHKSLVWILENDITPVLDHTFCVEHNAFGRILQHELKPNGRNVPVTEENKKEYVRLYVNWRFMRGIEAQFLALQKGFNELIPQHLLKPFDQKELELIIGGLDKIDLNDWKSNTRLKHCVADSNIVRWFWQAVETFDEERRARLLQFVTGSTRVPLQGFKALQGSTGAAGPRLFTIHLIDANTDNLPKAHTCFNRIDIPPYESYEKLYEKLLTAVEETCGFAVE

Cc1c(C(=O)Nc2ccc(CN)cc2)ncnc1N1CCC(C#N)(c2ccccc2)CC1 [BI8622]
IC50 (HECT-domain of HUWE1): 3.1 µM | IC50 (SMURF1): > 50 µM | IC50 (Ls174T cells): 8.4 µM

NCc1cccc(CNc2ncnc3c(N4CCN(Cc5ccccc5)CC4)ncnc23)c1 [BI8626]
IC50 (HECT-domain of HUWE1): 0.9 µM | IC50 (SMURF1): > 50 µM | IC50 (Ls174T cells): 0.7 µM
